Source: patent publication KR20140034898A, “헤테로시클릭 술폰아미드 유도체” (노파르티스 아게, priority 2011, dated 2012)

Legend:
[1] = biological target: BRAF-MEK-ERK cascade [BRAF-MEK-ERK 캐스케이드]; assay: BRAF-MEK-ERK cascade assay (TR-FRET, recombinant enzymes); assay type: biochemical, human; conditions: mean ± SEM, n=3; 100 μM ATP; 45 min pre-incubation, 90 min kinase reaction
A375 P-Erk = A375 P-Erk (In-Cell-Western); assay type: cell-based; conditions: A-375; A375 human melanoma cells, 3 h compound treatment, triplicate; 100% inhibition = reference inhibitor at highest test concentration
A375 cells [A375 세포] = assay: A375 cell viability assay (XTT); assay type: cell-based; conditions: Homo sapiens, A-375, 72 h, 3 days after compound addition
[2] = Pharmacokinetics in athymic nude rats; assay type: in vivo, rat; conditions: one-way ANOVA versus Example 1

Compound | IC50 [1] | EC50 (A375 P-Erk) | GI50 (A375 cells [A375 세포]) | PK parameters compared with Example 1 [2]
O=S(=O)(Nc1c(Nc2ccc(I)cc2F)c(F)c(F)c2ccoc12)C1(CC(O)CO)CC1 (racemic) [실시예 1, 1-(2,3-디히드록시-프로필)-시클로프로판술폰산 [4,5-디플루오로-6-(2-플루오로-4-아이오도-페닐아미노)-벤조푸란-7-일]아미드] | 2.1 ± 0.58 nM | 12.2 nM | 17.6 nM | 
O=S(=O)(Nc1c(Nc2ccc(I)cc2F)c(F)c(F)c2ccoc12)C1(C[C@H](O)CO)CC1 (single isomer, unassigned) [실시예 1A] | 2 ± 0.25 nM | 6.4 nM | 13.4 nM | 증진된 PK-파라미터
O=S(=O)(Nc1c(Nc2ccc(I)cc2F)c(F)c(F)c2ccoc12)C1(C[C@@H](O)CO)CC1 (single isomer, unassigned) [실시예 1B] | 1.6 ± 0.1 nM | 15.6 nM | 29.6 nM | 증진된 PK-파라미터
